Measurements: ChEMBL document CHEMBL5233229, “Recent advances in the development of ubiquitin-specific-processing protease 7 (USP7) inhibitors” (Eur J Med Chem, 2020)

biological target: T1, Ubiquitin carboxyl-terminal hydrolase 7 (Homo sapiens, UniProt Q93009); assay: Inhibition of human USP7 using ubiquitin-Rh110 as substrate incubated for 23 to 45 mins by fluorescence based assay
T1 sequence (Q93009 whole entry): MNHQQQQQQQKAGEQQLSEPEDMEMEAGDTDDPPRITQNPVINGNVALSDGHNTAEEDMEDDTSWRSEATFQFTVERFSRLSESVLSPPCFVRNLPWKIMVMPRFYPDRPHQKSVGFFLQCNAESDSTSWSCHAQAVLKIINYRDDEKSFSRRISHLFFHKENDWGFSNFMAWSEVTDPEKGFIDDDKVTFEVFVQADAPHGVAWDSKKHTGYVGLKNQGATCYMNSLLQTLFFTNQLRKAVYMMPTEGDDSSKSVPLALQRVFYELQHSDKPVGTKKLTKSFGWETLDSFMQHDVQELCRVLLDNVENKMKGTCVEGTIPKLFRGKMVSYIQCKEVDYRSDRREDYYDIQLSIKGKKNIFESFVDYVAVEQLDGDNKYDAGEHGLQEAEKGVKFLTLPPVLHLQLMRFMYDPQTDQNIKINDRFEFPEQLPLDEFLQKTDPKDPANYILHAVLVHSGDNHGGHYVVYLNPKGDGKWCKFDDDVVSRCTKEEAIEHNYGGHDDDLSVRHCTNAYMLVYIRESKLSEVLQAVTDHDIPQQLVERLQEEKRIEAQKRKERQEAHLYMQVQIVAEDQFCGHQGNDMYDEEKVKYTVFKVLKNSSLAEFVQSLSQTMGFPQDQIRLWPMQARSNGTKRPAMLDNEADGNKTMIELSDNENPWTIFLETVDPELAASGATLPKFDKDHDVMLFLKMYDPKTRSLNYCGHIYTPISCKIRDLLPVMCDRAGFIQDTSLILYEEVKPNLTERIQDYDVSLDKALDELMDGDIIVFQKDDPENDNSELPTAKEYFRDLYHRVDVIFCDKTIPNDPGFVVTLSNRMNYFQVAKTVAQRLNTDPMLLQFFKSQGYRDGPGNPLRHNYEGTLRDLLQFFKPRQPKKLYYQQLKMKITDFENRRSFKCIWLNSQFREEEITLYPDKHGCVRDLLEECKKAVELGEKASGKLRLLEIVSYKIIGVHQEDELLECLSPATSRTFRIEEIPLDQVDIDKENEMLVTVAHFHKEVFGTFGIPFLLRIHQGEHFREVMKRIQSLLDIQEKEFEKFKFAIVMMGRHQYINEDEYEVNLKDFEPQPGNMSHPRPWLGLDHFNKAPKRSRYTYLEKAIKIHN

Compound	IC50
O=C(c1cccc(-c2cccc(F)c2)c1)N1CCC(O)(Cn2cnn3cccc3c2=O)CC1	1 µM
O=C(Nc1cc2c(=O)n(CC3(O)CCN(C(=O)C4CC4)CC3)cnn2c1)c1csc(-c2ccccc2)n1	1 µM
O=C(c1ccc(-c2ccc(C(=O)N3CCC(O)(Cn4cnn5cccc5c4=O)CC3)c(C3CCCC3)c2)cc1)N1CCCC1	1 µM
C=C(C)C(=O)Nc1ccccc1-c1ccc(C(=O)N2CCC(O)(Cn3cnn4cccc4c3=O)CC2)cc1	1 µM
O=C(c1cccc(-c2cccc(Cl)c2)c1)N1CCC(O)(Cn2cnn3cccc3c2=O)CC1	1 µM
Cc1ccc(-c2ncc3c(=O)n(CC4(O)CCN(C(=O)C[C@H](C)n5cccn5)CC4)cnn23)cc1	1 µM
Cc1cc(C(F)(F)F)nn1Cc1ccc(C(=O)N2CCC(O)(Cn3cnn4cccc4c3=O)CC2)cc1	1 µM
O=C(c1cccc(-c2ccccc2F)c1)N1CCC(O)(Cn2cnn3cccc3c2=O)CC1	1 µM
O=C(c1ccccc1)N1CCC(O)(Cn2cnn3c(-c4ccccc4)ncc3c2=O)CC1	1 µM
COc1ccc(-c2cccc(C(=O)N3CCC(O)(Cn4cnn5cccc5c4=O)CC3)c2)cc1	1 µM
O=C(c1ccc(-c2ccc(C(=O)N3CCC(O)(Cn4cnn5cccc5c4=O)CC3)c(Cl)c2)cc1)N1CCCCC1	1 µM
O=C(c1ccc(-n2cccn2)cc1)N1CCC(O)(Cn2cnn3c(-c4ccc(F)cc4)ncc3c2=O)CC1	1 µM
CN(C)C(=O)c1ccc(-c2cccc(C(=O)N3CCC(O)(Cn4cnn5cccc5c4=O)CC3)c2)cc1	1 µM
CCN(c1ccccc1)c1ccc(C(=O)N2CCC(O)(Cn3cnn4cccc4c3=O)CC2)cc1	1 µM
O=C(c1cccc(-c2ccccc2)c1)N1CCC(O)(Cn2cnn3cccc3c2=O)CC1	1 µM
O=C(c1ccc(S(=O)(=O)c2ccccc2)cc1)N1CCC(O)(Cn2cnn3cccc3c2=O)CC1	1 µM
O=C(c1ccc(-c2ccc3ncccc3c2)cc1)N1CCC(O)(Cn2cnn3cccc3c2=O)CC1	1 µM
O=C(c1cccc(-c2ccc3c(c2)OCO3)c1)N1CCC(O)(Cn2cnn3cccc3c2=O)CC1	1 µM
O=C(c1ccc(-c2cccc(C(=O)N3CCC(O)(Cn4cnn5cccc5c4=O)CC3)c2)cc1)N1CCCC1	1 µM
Cc1ccc(-c2ncc3c(=O)n(CC4(O)CCN(C(=O)CC(C)n5cccn5)CC4)cnn23)cc1 (configuration not stated)	1 µM
O=C(c1cccc(-c2ccc3ncccc3c2)c1)N1CCC(O)(Cn2cnn3cccc3c2=O)CC1	1 µM
O=C(c1ccc(-c2cnc3ccccc3c2)cc1)N1CCC(O)(Cn2cnn3cccc3c2=O)CC1	1 µM
CC(C)(C)C(Cc1ccccc1)C(=O)N1CCC(O)(Cn2cnn3cccc3c2=O)CC1 (configuration not stated)	1 µM
Cc1ccc2c(=O)n(CC3(O)CCN(C(=O)C(C)Cc4ccccc4)CC3)cnn12 (configuration not stated)	1 µM
O=C(c1ccccc1)c1ccc(C(=O)N2CCC(O)(Cn3cnn4cccc4c3=O)CC2)cc1	1 µM
O=C(c1ccc(Cn2cnc3ccccc32)cc1)N1CCC(O)(Cn2cnn3cccc3c2=O)CC1	1 µM

The next lines start with the values.

IC50	Compound
1 µM	Cc1cc(C)n(Cc2ccc(C(=O)N3CCC(O)(Cn4cnn5cccc5c4=O)CC3)cc2)n1
1 µM	O=C(c1cccc(-c2ccc(Cl)cc2)c1)N1CCC(O)(Cn2cnn3cccc3c2=O)CC1
1 µM	CC(C)(c1ccccc1)c1ccc(C(=O)N2CCC(O)(Cn3cnn4cccc4c3=O)CC2)cc1
1 µM	O=C(c1ccc(Sc2ccccc2)cc1)N1CCC(O)(Cn2cnn3cccc3c2=O)CC1
1 µM	Cc1ccc(OCC(=O)Nc2cc3c(=O)n(CC4(O)CCN(C(=O)C5CC5)CC4)cnn3c2)cc1C
1 µM	O=C(c1cnc(C2CC2)o1)N1CCC(O)(Cn2cnn3c(-c4ccc(F)cc4)ncc3c2=O)CC1
1 µM	NC(=O)c1ccc(-c2cccc(C(=O)N3CCC(O)(Cn4cnn5cccc5c4=O)CC3)c2)cc1
1 µM	Cc1ccc(-c2cccc(C(=O)N3CCC(O)(Cn4cnn5cccc5c4=O)CC3)c2)cc1
1 µM	CCC(Cc1ccccc1)C(=O)N1CCC(O)(Cn2cnn3cccc3c2=O)CC1 (configuration not stated)
1 µM	O=C(c1ccc(F)cc1)N1CCC(O)(Cn2cnn3c(-c4ccc(F)cc4)ncc3c2=O)CC1
1 µM	Cc1cc2c(=O)n(CC3(O)CCN(C(=O)C(C)Cc4ccccc4)CC3)cnn2c1 (configuration not stated)
< 1 µM	CC(=O)Nc1cc2c(=O)n(CC3(O)CCN(C(=O)C[C@@H](C)c4ccccc4)CC3)cnn2c1
1 µM	O=C(COc1cccc(Cl)c1Cl)Nc1cc2c(=O)n(CC3(O)CCN(C(=O)C4CC4)CC3)cnn2c1
1 µM	CC(CC(=O)N1CCC(O)(Cn2cnn3cc(Cl)cc3c2=O)CC1)c1ccccc1 (configuration not stated)
1 µM	Cc1ccc2[nH]ncc2c1-c1cccc(C(=O)N2CCC(O)(Cn3cnn4cccc4c3=O)CC2)c1
1 µM	Cc1ccc2cc(-c3ccc(C(=O)N4CCC(O)(Cn5cnn6cccc6c5=O)CC4)cc3)ccc2n1
1 µM	O=C(c1ccc(Cn2ccnc2)cc1)N1CCC(O)(Cn2cnn3cccc3c2=O)CC1
1 µM	O=C(c1ccc(Cc2cccs2)cc1)N1CCC(O)(Cn2cnn3cccc3c2=O)CC1
< 1 µM	CC(CC(=O)N1CCC(O)(Cn2cnn3cccc3c2=O)CC1)c1ccccc1 (configuration not stated)
1 µM	Cc1ccccc1-c1cccc(C(=O)N2CCC(O)(Cn3cnn4cccc4c3=O)CC2)c1
1 µM	Cc1cc2c(=O)n(CC3(O)CCN(C(=O)CC(C)c4ccccc4)CC3)cnn2c1 (configuration not stated)
1 µM	O=C(c1cccc(-c2ccc3scnc3c2)c1)N1CCC(O)(Cn2cnn3cccc3c2=O)CC1
1 µM	O=C(c1ccc(Cn2nnc3ccccc32)cc1)N1CCC(O)(Cn2cnn3cccc3c2=O)CC1
< 0.2 µM	C[C@H](CC(=O)N1CCC(O)(Cn2cnn3cccc3c2=O)CC1)c1ccccc1
< 1 µM	Cn1c(-c2cccc(C(=O)N3CCC(O)(Cn4cnn5cccc5c4=O)CC3)c2)cc2ccccc21
< 0.2 µM	CC(CC(=O)N1CCC(O)(Cn2cnn3cccc3c2=O)CC1)n1cccc1 (configuration not stated)
< 1 µM	CNC(=O)Nc1cc2c(=O)n(CC3(O)CCN(C(=O)C[C@@H](C)c4ccccc4)CC3)cnn2c1
< 1 µM	Cc1ccc2c(=O)n(CC3(O)CCN(C(=O)CC(C)c4ccccc4)CC3)cnn12 (configuration not stated)

biological target: T1, Ubiquitin carboxyl-terminal hydrolase 7; assay: Inhibition of human USP7 using Ub-EKL as substrate

EC50	Compound
5 µM	O=C(Nc1ccc2c(c1)S(=O)(=O)C=C2)c1nnc(Sc2c(F)cncc2Cl)s1
> 10 µM	CN(C)CCCOc1ccc(NC(=O)c2nnc(Sc3c(Cl)cncc3Cl)o2)cc1
< 1 µM	O=C(Nc1cnccn1)c1nnc(Sc2c(Cl)cncc2Cl)s1
1 µM	CC(=O)c1cccc(NC(=O)c2nnc(Sc3c(Cl)cncc3Cl)s2)c1
2 µM	Cc1c(NC(=O)c2nnc(Sc3c(Cl)cncc3Cl)s2)ccc2c1S(=O)(=O)CC2
< 1 µM	CN(C)CCCOc1ccc(NC(=O)c2nnc(Sc3c(Cl)cncc3Br)s2)cc1
1 µM	CN(C(=O)c1nnc(Sc2c(Cl)cncc2Cl)s1)c1ccc2c(c1)S(=O)(=O)C=C2
> 10 µM	O=C(Nc1ccc2c(c1)S(=O)(=O)C=C2)c1nnc(Sc2c(Cl)cccc2Cl)s1
1 µM	Cc1nc2ccc(NC(=O)c3nnc(Sc4c(Cl)cncc4Cl)s3)cc2s1
1 µM	CS(=O)(=O)c1cccc(NC(=O)c2nnc(Sc3c(Cl)cncc3Cl)s2)c1
> 10 µM	O=C(Nc1ccc2c(c1)S(=O)(=O)C=C2)c1cnc(Sc2c(Cl)cncc2Cl)o1
5 µM	O=C(Nc1ccc2c(c1)S(=O)(=O)C=C2)c1sc(Sc2c(Cl)cncc2Cl)nc1C(F)(F)F
< 1 µM	O=C(Nc1cccc(Cl)n1)c1nnc(Sc2c(Cl)cncc2Cl)s1
